Results: patent publication US12655116B2, “Substituted isophthalic acid diamides” (Bayer Aktiengesellschaft, priority 2020, dated 2026)

Experiments:
[1] = tested on: ABUTH; assay: Pre-emergence herbicidal action against ABUTH; assay type: in vivo, Abutilon theophrasti; settings: Abutilon theophrasti, 504 h; for pest or weed control at 80 g/ha: scored visually after 3 weeks vs untreated controls (100% = plants have died, 0% = like control plants); for pest or weed control at 20 g/ha: dosage 20 g/ha, scored visually after 3 weeks vs untreated controls, 100% = plants have died, 0% = like control plants, read-out: Pre-emergence action against ABUTH (herbicidal activity in percent)
Summary of the method: (§1)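 Seeds sown in sandy loam, soil-covered; compound sprayed on soil surface pre-emergence. Application: WP/EC, 600–800 l/ha, 0.2% wetting agent. Readout: visual % damage at 3 weeks.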

[2] = tested on: ALOMY; assay: Pre-emergence herbicidal action against ALOMY; assay type: in vivo, Alopecurus myosuroides; settings: Alopecurus myosuroides, 504 h; 80 g/ha, pre-emergence, scored visually after 3 weeks vs untreated controls (100% = plants have died, 0% = like control plants)
Summary of the method: as §1

[3] = tested on: AMARE; assay: Pre-emergence herbicidal action against AMARE; assay type: in vivo, Amaranthus retroflexus; settings: Amaranthus retroflexus, 504 h, scored visually after 3 weeks vs untreated controls, 100% = plants have died, 0% = like control plants
Summary of the method: as §1

[4] = tested on: AVEFA; assay: Pre-emergence herbicidal action against AVEFA; assay type: in vivo, Avena fatua; settings: Avena fatua, 504 h; 80 g/ha, pre-emergence
Summary of the method: as §1

[5] = tested on: ECHCG; assay: Pre-emergence herbicidal action against ECHCG; assay type: in vivo, Echinochloa crus-galli; settings: Echinochloa crus-galli, 504 h, 80 g/ha
Summary of the method: as §1

[6] = tested on: MATIN; assay: Pre-emergence herbicidal action against MATIN; assay type: in vivo, Matricaria inodora; settings: Tripleurospermum inodorum, 504 h; for pest or weed control at 20 g/ha: dosage 20 g/ha; for pest or weed control at 80 g/ha: dosage 80 g/ha
Summary of the method: as §1

[7] = tested on: PHBPU; assay: Pre-emergence herbicidal action against PHBPU; assay type: in vivo, Pharbitis purpurea; settings: Ipomoea purpurea, 504 h, dosage 80 g/ha
Summary of the method: as §1

[8] = tested on: POLCO; assay: Pre-emergence herbicidal action against POLCO; assay type: in vivo, Polygonum convolvulus; settings: Fallopia convolvulus, 504 h, dosage 80 g/ha
Summary of the method: as §1

[9] = tested on: SETVI; assay: Pre-emergence herbicidal action against SETVI; assay type: in vivo, Setaria viridis; settings: Setaria viridis, 504 h; for pest or weed control at 80 g/ha: dosage 80 g/ha
Summary of the method: as §1

[10] = tested on: VERPE; assay: Pre-emergence herbicidal action against VERPE; assay type: in vivo, Veronica persica; settings: Veronica persica, 504 h, dosage 80 g/ha
Summary of the method: as §1

[11] = tested on: VIOTR; assay: Pre-emergence herbicidal action against VIOTR; assay type: in vivo, Viola tricolor; settings: Viola tricolor, 504 h; for pest or weed control at 80 g/ha: dosage 80 g/ha
Summary of the method: as §1

[12] = tested on: DIGSA; assay: Pre-emergence herbicidal action against DIGSA; assay type: in vivo, Digitaria sanguinalis; settings: Digitaria sanguinalis, 504 h; for pest or weed control at 20 g/ha: dosage 20 g/ha; for pest or weed control at 80 g/ha: dosage 80 g/ha
Summary of the method: as §1

[13] = tested on: ALOMY; assay: Post-emergence herbicidal action against ALOMY; assay type: in vivo, Alopecurus myosuroides; settings: Alopecurus myosuroides, 504 h, dosage 20 g/ha, visual assessment about 3 weeks after treatment vs untreated controls
Summary of the method: (§2)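 Percent herbicidal action is rated by eye about 3 weeks after treatment against untreated controls, where 100% means dead plants and 0% means like controls. Plants in sandy loam are sprayed on green parts at the one-leaf stage with aqueous WP or EC preparations at 600 to 800 l/ha plus 0.2% wetting agent.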

[14] = tested on: AMARE; assay: Post-emergence herbicidal action against AMARE; assay type: in vivo, Amaranthus retroflexus; settings: Amaranthus retroflexus, 504 h, 20 g/ha, visual assessment about 3 weeks after treatment, 100% = plants have died, 0% = like control plants
Summary of the method: as §2

[15] = tested on: ECHCG; assay: Post-emergence herbicidal action against ECHCG; assay type: in vivo, Echinochloa crus-galli; settings: Echinochloa crus-galli, 504 h; for pest or weed control at 20 g/ha: dosage 20 g/ha
Summary of the method: as §2

[16] = tested on: MATIN; assay: Post-emergence herbicidal action against MATIN; assay type: in vivo, Matricaria inodora; settings: Tripleurospermum inodorum, 504 h; for pest or weed control at 20 g/ha: dosage 20 g/ha
Summary of the method: as §2

[17] = tested on: PHBPU; assay: Post-emergence herbicidal action against PHBPU; assay type: in vivo, Pharbitis purpurea; settings: Ipomoea purpurea, 504 h, dosage 20 g/ha
Summary of the method: as §2

[18] = tested on: SETVI; assay: Post-emergence herbicidal action against SETVI; assay type: in vivo, Setaria viridis; settings: Setaria viridis, 504 h; for pest or weed control at 5 g/ha: dosage 5 g/ha; for pest or weed control at 20 g/ha: dosage 20 g/ha
Summary of the method: as §2

[19] = tested on: DIGSA; assay: Post-emergence herbicidal action against DIGSA; assay type: in vivo, Digitaria sanguinalis; settings: Digitaria sanguinalis, 504 h
Summary of the method: as §2

[20] = tested on: ABUTH; assay: Post-emergence herbicidal action against ABUTH; assay type: in vivo, Abutilon theophrasti; settings: Abutilon theophrasti, 504 h, visual assessment about 3 weeks after treatment vs untreated controls
Summary of the method: as §2

[21] = tested on: VERPE; assay: Post-emergence herbicidal action against VERPE; assay type: in vivo, Veronica persica; settings: Veronica persica, 504 h
Summary of the method: as §2

[22] = tested on: VIOTR; assay: Post-emergence herbicidal action against VIOTR; assay type: in vivo, Viola tricolor; settings: Viola tricolor, 504 h
Summary of the method: as §2

Cn1nnnc1NC(=O)c1ccc(C(F)F)c(C(=O)NCC(F)(F)F)c1Br [Example 1-229]
100%: pest or weed control at 80 g/ha [1] | pest or weed control at 20 g/ha [3] | pest or weed control at 80 g/ha [3] | pest or weed control at 20 g/ha [6] | pest or weed control at 80 g/ha [6] | pest or weed control at 80 g/ha [9] | pest or weed control at 80 g/ha [10] | pest or weed control at 80 g/ha [11] | pest or weed control at 20 g/ha [12] | pest or weed control at 80 g/ha [12]
90%: pest or weed control at 20 g/ha [1] | pest or weed control at 80 g/ha [2] | pest or weed control at 80 g/ha [7] | pest or weed control at 20 g/ha [14] | pest or weed control at 5 g/ha ([15]; dosage 5 g/ha) | pest or weed control at 20 g/ha [15] | pest or weed control at 20 g/ha [18] | pest or weed control at 5 g/ha ([19]; 5 g/ha) | pest or weed control at 20 g/ha [19]
80%: pest or weed control at 80 g/ha [4] | pest or weed control at 80 g/ha [5] | pest or weed control at 80 g/ha [8] | pest or weed control at 20 g/ha [13] | pest or weed control at 20 g/ha [16] | pest or weed control at 20 g/ha [17] | pest or weed control at 5 g/ha [18]

CNC(=O)c1c(C(F)F)ccc(C(=O)Nc2nnnn2C)c1C1CC1 [Example 1-304]
100%: pest or weed control at 80 g/ha [1] | pest or weed control at 20 g/ha [1] | pest or weed control at 20 g/ha [3] | pest or weed control at 80 g/ha [3] | pest or weed control at 80 g/ha [5] | pest or weed control at 80 g/ha [6] | pest or weed control at 80 g/ha [9] | pest or weed control at 80 g/ha [10] | pest or weed control at 20 g/ha ([11]; dosage 20 g/ha) | pest or weed control at 80 g/ha [11] | pest or weed control at 20 g/ha [12] | pest or weed control at 80 g/ha [12]
80%: pest or weed control at 80 g/ha [7] | pest or weed control at 80 g/ha [8] | pest or weed control at 5 g/ha ([21]; 5 g/ha) | pest or weed control at 20 g/ha ([21]; 20 g/ha) | pest or weed control at 5 g/ha ([22]; 5 g/ha)
90%: pest or weed control at 20 g/ha [6] | pest or weed control at 20 g/ha ([9]; dosage 20 g/ha) | pest or weed control at 5 g/ha ([20]; dosage 5 g/ha) | pest or weed control at 20 g/ha ([20]; dosage 20 g/ha) | pest or weed control at 20 g/ha [14] | pest or weed control at 20 g/ha [15] | pest or weed control at 5 g/ha ([16]; dosage 5 g/ha) | pest or weed control at 20 g/ha [16] | pest or weed control at 5 g/ha [18] | pest or weed control at 20 g/ha [18] | pest or weed control at 20 g/ha ([22]; 20 g/ha) | pest or weed control at 20 g/ha [19]
